According to ChEMBL document CHEMBL4819076, “An affinity prediction approach for the ligand of E3 ligase Cbl-b and an insight into substrate binding pattern” (Bioorg Med Chem, 2021):
Where a SMILES comes first, the peptide text is derived from it. [ ]: non-standard residue; d: D form. pY = N[C@@H](Cc1ccc(OP(=O)(O)O)cc1)C(=O)O

How the values were obtained:
[1] = target: T1, E3 ubiquitin-protein ligase CBL-B (Homo sapiens, UniProt Q13191); test: Binding affinity to recombinant His-tagged Cbl-b (unknown origin) (39 to 368 residues) expressed in Escherichia coli BL21 (DE3) using FITC-DGpYPEPA-NH2 as substrate incubated for 30 mins by fluorescence polarization assay
[2] = target: T1, E3 ubiquitin-protein ligase CBL-B; test: Binding affinity to recombinant His-tagged Cbl-b (unknown origin) (39 to 368 residues) expressed in Escherichia coli BL21 (DE3) assessed as dissociation constant by bio-layer interferometry assay

T1 sequence (Q13191 whole entry, the tested form may be a part): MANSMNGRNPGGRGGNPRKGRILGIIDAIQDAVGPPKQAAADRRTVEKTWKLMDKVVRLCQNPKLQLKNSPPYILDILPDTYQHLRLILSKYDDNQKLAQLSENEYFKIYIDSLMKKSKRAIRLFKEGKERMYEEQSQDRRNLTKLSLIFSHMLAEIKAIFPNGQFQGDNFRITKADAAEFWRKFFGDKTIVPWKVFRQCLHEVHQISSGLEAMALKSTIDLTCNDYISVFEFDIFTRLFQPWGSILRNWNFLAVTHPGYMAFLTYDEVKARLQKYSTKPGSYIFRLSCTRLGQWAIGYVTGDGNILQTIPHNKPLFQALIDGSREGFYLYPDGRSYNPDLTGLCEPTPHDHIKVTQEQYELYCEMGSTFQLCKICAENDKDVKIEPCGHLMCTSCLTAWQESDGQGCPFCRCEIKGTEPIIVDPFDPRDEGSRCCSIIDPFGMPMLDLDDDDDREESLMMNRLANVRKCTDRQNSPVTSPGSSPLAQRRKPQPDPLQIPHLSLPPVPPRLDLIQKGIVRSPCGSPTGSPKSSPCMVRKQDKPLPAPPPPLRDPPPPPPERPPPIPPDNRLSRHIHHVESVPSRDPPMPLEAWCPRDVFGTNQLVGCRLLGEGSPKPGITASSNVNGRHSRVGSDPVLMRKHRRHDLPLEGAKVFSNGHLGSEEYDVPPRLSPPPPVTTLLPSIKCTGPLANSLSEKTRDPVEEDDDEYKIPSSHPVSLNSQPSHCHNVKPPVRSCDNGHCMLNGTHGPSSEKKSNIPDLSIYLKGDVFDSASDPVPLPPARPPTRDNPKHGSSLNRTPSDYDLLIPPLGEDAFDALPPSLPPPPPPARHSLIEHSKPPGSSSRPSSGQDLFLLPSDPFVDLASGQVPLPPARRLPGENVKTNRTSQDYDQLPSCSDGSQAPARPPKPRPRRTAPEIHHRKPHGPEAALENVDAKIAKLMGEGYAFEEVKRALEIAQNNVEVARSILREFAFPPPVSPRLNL

C[C@@H](O)[C@H](NC(=O)[C@H](Cc1ccc(OP(=O)(O)O)cc1)NC(=O)CN)C(=O)N1CCC[C@H]1C(=O)N[C@@H](CCC(=O)O)C(=O)O (H-G[pY]TPE-OH) gave an IC50 [1] of over 1000 µM.

Compound CC(=O)N[C@@H](Cc1ccc(OP(=O)(O)O)cc1)C(=O)N[C@H](C(=O)N[C@@H](CC(C)C)C(=O)N[C@@H](CCC(=O)O)C(=O)N1CCC[C@H]1C(N)=O)[C@@H](C)O (Ac-[pY]TLEP-NH2) has a Kd [2] of 29.8 µM.

CC[C@H](C)[C@H](NC(=O)[C@@H](NC(=O)[C@H](Cc1ccc(OP(=O)(O)O)cc1)NC(C)=O)[C@@H](C)O)C(=O)N[C@@H](CCC(=O)O)C(=O)N1CCC[C@H]1C(N)=O (Ac-[pY]TIEP-NH2) showed a Kd [2] of 35.5 µM.

In the case of CC(=O)N[C@@H](Cc1ccc(OP(=O)(O)O)cc1)C(=O)N[C@@H](C)C(=O)N1CCC[C@H]1C(=O)N[C@@H](CCC(=O)O)C(=O)N1CCC[C@H]1C(N)=O (Ac-[pY]APEP-NH2), the IC50 [1] is reported as 104 µM and the Kd [2] is reported as 57.1 µM.

CC(=O)N[C@@H](CC(C)C)C(=O)N[C@@H](CCC(N)=O)C(=O)N[C@@H](CCCNC(=N)N)C(=O)N[C@@H](Cc1ccc(OP(=O)(O)O)cc1)C(=O)N[C@@H](CO)C(=O)N[C@@H](CO)C(=O)N[C@@H](CC(=O)O)C(=O)N1CCC[C@H]1C(=O)N[C@H](C(=O)NCC(N)=O)[C@@H](C)O (Ac-LQR[pY]SSDPTG-NH2) gave a Kd [2] of 8.28 µM.

In the case of CC(=O)N[C@@H](Cc1ccc(OP(=O)(O)O)cc1)C(=O)N[C@H](C(=O)N1CCC[C@H]1C(=O)N[C@@H](CC(=O)O)C(=O)N1CCC[C@H]1C(N)=O)[C@@H](C)O (Ac-[pY]TPDP-NH2), the Kd [2] is reported as 22.9 µM.

Compound CC(=O)N[C@@H](Cc1ccc(OP(=O)(O)O)cc1)C(=O)N[C@H](C(=O)N1CCC[C@H]1C(=O)N[C@@H](CCC(=O)O)C(N)=O)[C@@H](C)O (Ac-[pY]TPE-NH2) has an IC50 [1] of 398 µM and a Kd [2] of 98.3 µM.

With CC(=O)N[C@@H](Cc1ccc(OP(=O)(O)O)cc1)C(=O)N[C@H](C(=O)N[C@@H](C)C(=O)N[C@@H](CCC(=O)O)C(=O)N1CCC[C@H]1C(N)=O)[C@@H](C)O (Ac-[pY]TAEP-NH2) the IC50 [1] was 27.3 µM and the Kd [2] was 24.4 µM.

For CC(=O)N[C@@H](Cc1ccc(OP(=O)(O)O)cc1)C(=O)N[C@H](C(=O)N1CCC[C@H]1C(=O)N[C@@H](CCC(=O)O)C(=O)N1CCC[C@H]1C(N)=O)[C@@H](C)O, the IC50 [1] was 7.84 µM and the Kd [2] was 5.55 µM.

For CC(=O)N[C@@H](Cc1ccc(OP(=O)(O)O)cc1)C(=O)N[C@H](C(=O)N1CCC[C@H]1C(=O)N[C@@H](CCC(N)=O)C(=O)N1CCC[C@H]1C(N)=O)[C@@H](C)O (Ac-[pY]TPQP-NH2), the Kd [2] was 43.4 µM.

For CC(=O)NCC(=O)N[C@@H](Cc1ccc(OP(=O)(O)O)cc1)C(=O)N[C@H](C(=O)N1CCC[C@H]1C(=O)N[C@@H](CCC(=O)O)C(=O)N1CCC[C@H]1C(N)=O)[C@@H](C)O (Ac-G[pY]TPEP-NH2), the IC50 [1] was 11.3 µM and the Kd [2] was 22.4 µM.

Work on CC(=O)N[C@@H](Cc1ccc(OP(=O)(O)O)cc1)C(=O)N[C@H](C(=O)N1CCC[C@H]1C(=O)N[C@@H](C)C(=O)N1CCC[C@H]1C(N)=O)[C@@H](C)O (Ac-[pY]TPAP-NH2) yielded an IC50 [1] of 46.3 µM and a Kd [2] of 18.5 µM.

Compound CC(=O)N[C@@H](CC(=O)O)C(=O)NCC(=O)N[C@@H](Cc1ccc(OP(=O)(O)O)cc1)C(=O)N[C@H](C(=O)N1CCC[C@H]1C(=O)N[C@@H](CCC(=O)O)C(=O)N1CCC[C@H]1C(=O)N[C@@H](C)C(N)=O)[C@@H](C)O (Ac-DG[pY]TPEPA-NH2) has an IC50 [1] of 10.6 µM and a Kd [2] of 24.4 µM.

CC(=O)N[C@@H](Cc1ccc(OP(=O)(O)O)cc1)C(=O)N[C@H](C(=O)N1CCC[C@H]1C(=O)N[C@@H](CCC(=O)O)C(=O)N[C@@H](Cc1ccccc1)C(N)=O)[C@@H](C)O (Ac-[pY]TPEF-NH2) gave a Kd [2] of 33.5 µM.

With Ac-ETPEP-NH2 the IC50 [1] was over 1000 µM.

Compound CC(=O)N[C@@H](CCCNC(=N)N)C(=O)N[C@@H](Cc1ccc(OP(=O)(O)O)cc1)C(=O)N[C@H](C(=O)N1CCC[C@H]1C(=O)N[C@@H](CCC(=O)O)C(=O)N1CCC[C@H]1C(N)=O)[C@@H](C)O (Ac-R[pY]TPEP-NH2) has a Kd [2] of 0.763 µM.
